Test results as given in patent US9155752B2, “Liver function-improving agent” (UENO FINE CHEMICALS INDUSTRY, LTD., priority 2012, dated 2015).
Entries after “also recorded” stand apart in the source; their conditions may differ.

Tested on: NASH mice
Test: Sirius Red staining of liver, fibrosis area % (Test Example 3)
Type: in vivo
Settings: for Fibrosis area %, Significant difference: Bonferroni, 5% level, tendency at 10% level; for Fibrosis area % (Sirius Red staining), mean ± standard deviation: 8 weeks of age
From the text: A solid diet CE-2 (lipid 4.6% by weight, manufactured by CLEA Japan, Inc.) was used as a normal diet. A solid diet, High Fat Diet 32 (lipid 32.0% by weight, sucrose 6.75% by weight, manufactured by CLEA Japan, Inc.), was used as a sucrose-containing high fat diet. As a maltitol-containing high-fat diet, a special diet (lipid 32.0% by weight, maltitol 6.08% by weight; manufactured by CLEA Japan, Inc.) obtained by replacing the total amount (6.75% by weight) of sucrose in a solid diet, High Fat Diet 32, with powdered maltitol (Whole Crystalline Maltitol Ueno 60M (purity of maltitol: 90%), manufactured by Ueno Fine Chemicals Industry Ltd.) was used. Sodium hypochlorite (PURELOX-S, manufactured by OYALOX Co., Ltd.) was added to pure water prepared by Elix-UV pure water producing apparatus, to a final concentration of 0.00009%, so that pure water for use in the test was obtained. An aqueous maltitol solution was prepared by dissolving powdered maltitol (Whole Crystalline Maltitol Ueno 60M (purity of maltitol: 90%), manufactured by Ueno Fine Chemicals Industry Ltd.) in pure water to a concentration of 1.8% (weight/volume). The purity of maltitol in the aqueous maltitol solution was 1.62%. Twenty-one female SPF mice (C57BL/6J, produced by CLEA Japan, Inc.) on day 14 of pregnancy were purchased and acclimation was performed. All animals were allowed to make a natural birth and a born male was used to produce a model. In addition, the weaning was at 4 weeks after birth. Streptozotocin (Sigma-Aldrich Japan K.K.) was adjusted to a concentration of 10 mg/mL with a physiological saline solution (manufactured by Otsuka Pharmaceutical Factory, Inc.) and the solution was subcutaneously administered once to the back of 2-day-old male mice at a dose of 20 μL/mouse (200 μg/mouse). Afterwards, the mother animal took care of the baby until weaning. The weaning was on day 28±2 after birth. After the weaning, a normal diet was supplied ad libitum to animals receiving no streptozotocin (normal mice (group S1 and group 1)), and a sucrose-containing high fat diet was supplied ad libitum to animals receiving streptozotocin (NASH mice (group S2, group 2, group 3, and group 4). A normal diet was supplied ad libitum to normal mice (group 1). With respect to NASH mice, a sucrose-containing high fat diet was supplied ad libitum to the sucrose group (group 2), and a maltitol-containing high fat diet was supplied ad libitum to the maltitol-low dose group (group 3) and the maltitol-high dose group (group 4). An aqueous maltitol solution was supplied ad libitum only to the maltitol-high dose group (group 4) of 5 to 8 weeks of age, and pure water was supplied ad libitum to the groups other than group 4 of 5 to 8 weeks of age. Six male animals per group were assigned to groups S1 and S2, reared up to 5 weeks of age, and then necropsied. Eight male animals per group were assigned to groups 1, 2, 3 and 4, reared up to 8 weeks of age, and then necropsied. At scheduled necropsy of the animals of 5 or 8 weeks of age, all individuals were anesthetized with diethyl ether (manufactured by Sigma-Aldrich Japan K.K.) and a needle through which heparin sodium (Novo Heparin Injection 1000, manufactured by Mochida Pharmaceutical Co., Ltd.) had been passed was punctured to the heart to aspirate the whole blood, leading to euthanasia, followed by harvest of the organ. […]

SMILES	Fibrosis area %, Significant difference (Group 3 (low-dose maltitol) vs sucrose group (group 2))	Fibrosis area % (Sirius Red staining), mean ± standard deviation (Group 3, low-dose maltitol: HFD32-M (maltitol 6.08%) + pure water) [%]	Fibrosis area %, Significant difference (Group 4 (high-dose maltitol) vs sucrose group (group 2))	Fibrosis area % (Sirius Red staining), mean ± standard deviation (Group 4, high-dose maltitol: HFD32-M (maltitol 6.08%) + aqueous maltitol solution 1.62%) [%]	Fibrosis area % (Sirius Red staining), mean ± standard deviation (Group 2, sucrose group: HFD32 (sucrose 6.75%) + pure water) [%]
OC[C@@H](O)[C@@H](O[C@H]1O[C@H](CO)[C@@H](O)[C@H](O)[C@H]1O)[C@H](O)[C@@H](O)CO [maltitol]	tendency to be low; also recorded: Tendency to be different	0.89 ± 0.15	tendency to be low; also recorded: Tendency to be different	0.86 ± 0.27	
OC[C@H]1O[C@@](CO)(O[C@H]2O[C@H](CO)[C@@H](O)[C@H](O)[C@H]2O)[C@@H](O)[C@@H]1O [sucrose, reference compound]					1.09 ± 0.23
